Legend:
[1] = test system: MIA PaCa-2 (human pancreatic carcinoma) cells; experiment: Cell Viability Assay (CellTiter-Glo), MIA PaCa-2; type: cell-based
Protocol: Serially-diluted compound or DMSO was added to the cells, and plates were incubated at 37° C., 5% CO2 for 72 h. Cell viability was measured using a CellTiter-Glo® Luminescent Cell Viability Assay kit (Promega) according to the manufacturer's protocol. The luminescence signal of treated samples was normalized to DMSO control, and data were analyzed using a 4-parameter logistic model to calculate IC50 values.

KRAS G12C = KRAS G12C (Homo sapiens (Human), UniProt P01116, C118A/G12C); experiment: 2 h coupled exchange assay; type: biochemical; settings: Avg 2 h Coupled exchange IC50, 2 h compound pre-incubation
Protocol: The term “2 h coupled exchange assay” or “20 h coupled exchange assay” as used herein refers to the assay described in the Section entitled “BIOLOGICAL EVALUATION.”

[2] = test system: A549 (human lung carcinoma) cells; experiment: Cell Viability Assay (CellTiter-Glo), A549; type: cell-based
Method in brief: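 After a 72 h exposure to serial compound dilutions at 37° C, luminescent ATP content was measured with CellTiter-Glo. The cells were A549 or MIA PaCa-2, seeded at 1.67E+04 cells/mL in RPMI 1640 with 10% serum. Signals were normalized to DMSO controls and IC50 fitted with a 4-parameter logistic model.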

[3] = SOS-mediated nucleotide exchange

Chain of KRAS G12C (P01116 other isoform, or with tags, fused parts or gaps G12C/C118A): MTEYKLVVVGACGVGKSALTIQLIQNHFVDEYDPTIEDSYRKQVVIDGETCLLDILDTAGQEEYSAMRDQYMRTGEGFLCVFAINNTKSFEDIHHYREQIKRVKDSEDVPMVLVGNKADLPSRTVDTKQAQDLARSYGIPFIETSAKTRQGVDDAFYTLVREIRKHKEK

Row | Structure (SMILES) | IC50 ([1]; Homo sapiens, MIA PaCa-2, 72 h) | IC50 (KRAS G12C; [3]) | IC50 ([2]; Homo sapiens, A549, 72 h) | IC50 ([1]; 72 h) | IC50 ([2]; 72 h) | IC50 (KRAS G12C)
1 | C=CC(=O)N1CC2(CCN(c3nc4c(c(-c5c(C)ccc6cnn(C)c56)c3C#N)CCC(C)(C)C4)C2)C1 (single isomer, unassigned) [Example 13-150, 4-(1,6-dimethyl-1H-indazol-7-yl)-7,7-dimethyl-2-(2-(2-propenoyl)-2,6-diazaspiro[3.4]octan-6-yl)-5,6,7,8-tetrahydro-3-quinolinecarbonitrile] |  | 2900 nM |  | 4020 nM | 6.73 µM | 
2 | C=CC(=O)N1CC2(CCN(c3nc4c(c(-c5c(N)c(Cl)cc(Cl)c5F)c3C#N)COC(C)(C)C4)C2)C1 (single isomer, unassigned) [Example 13-156, 4-(2-amino-3,5-dichloro-6-fluorophenyl)-7,7-dimethyl-2-(2-(2-propenoyl)-2,6-diazaspiro[3.4]octan-6-yl)-7,8-dihydro-5H-pyrano[4,3-b]pyridine-3-carbonitrile] |  | 140000 nM |  | 5920 nM | 8.16 µM | 
3 | C=CC(=O)N1CC2(CCN(c3nc4c(c(-c5ccc(F)c6sc(N)nc56)c3C)COC(C)(C)C4)C2)C1 (single isomer, unassigned) [Example 14-38, (P)-1-(6-(4-(2-amino-7-fluoro-1,3-benzothiazol-4-yl)-3,7,7-trimethyl-7,8-dihydro-5H-pyrano[4,3-b]pyridin-2-yl)-2,6-diazaspiro[3.4]octan-2-yl)-2-propen-1-one] | 123 nM |  | > 5 µM |  |  | 63 nM
4 | C=CC(=O)N1CC2(CCN(c3nc4c(c(-c5c(C)c(C)cc6cnn(C)c56)c3C)COC(C)(C)C4)C2)C1 (single isomer, unassigned) [Example 14-41, (P)-1-(6-(3,7,7-trimethyl-4-(1,5,6-trimethyl-1H-indazol-7-yl)-7,8-dihydro-5H-pyrano[4,3-b]pyridin-2-yl)-2,6-diazaspiro[3.4]octan-2-yl)-2-propen-1-one] | 408 nM |  | > 5 µM |  |  | 66 nM
5 | C=CC(=O)N1CC2(CCN(c3nc4c(c(-c5cccc6cc(O)ccc56)c3C)COC(C)(C)C4)C2)C1 (single isomer, unassigned) [Example 14-44, (P)-1-(6-(4-(6-hydroxy-1-naphthalenyl)-3,7,7-trimethyl-7,8-dihydro-5H-pyrano[4,3-b]pyridin-2-yl)-2,6-diazaspiro[3.4]octan-2-yl)-2-propen-1-one] | 44 nM |  | > 5 µM |  |  | 71 nM
6 | C=CC(=O)N1CC2(CCN(c3nc4c(c(-c5c(C)ccc6cn[nH]c56)c3C#N)C[C@H]3C[C@@H]4C3(C)C)C2)C1 (single isomer, unassigned) [Example 14-51] | 18 nM |  | > 5 µM |  |  | 11 nM
7 | C=CC(=O)N1CC2(CCN(c3nc4c(c(-c5ccc(F)c6sc(N)nc56)c3C#N)COC(C)(C)C4)C2)C1 (single isomer, unassigned) [Example 14-57, (P)-4-(2-amino-7-fluoro-1,3-benzothiazol-4-yl)-7,7-dimethyl-2-(2-(2-propenoyl)-2,6-diazaspiro[3.4]octan-6-yl)-7,8-dihydro-5H-pyrano[4,3-b]pyridine-3-carbonitrile] | 71 nM |  | > 5 µM |  |  | 40 nM
8 | C=CC(=O)N1CC2(CCN(c3nc4c(c(-c5cc(O)ccc5C)c3F)C[C@H]3C[C@@H]4C3(C)C)C2)C1 (single isomer, unassigned) [Example 14-59] | 293 nM |  | > 5 µM |  |  | 25 nM
9 | C=CC(=O)N1CC2(CCN(c3nc4c(c(-c5cc(O)cc6ccccc56)c3F)COC(C)(C)C4)C2)C1 (single isomer, unassigned) [Example 14-70, (P)-1-(6-(3-fluoro-4-(3-hydroxy-1-naphthalenyl)-7,7-dimethyl-7,8-dihydro-5H-pyrano[4,3-b]pyridin-2-yl)-2,6-diazaspiro[3.4]octan-2-yl)-2-propen-1-one] | 82 nM |  | > 5 µM |  |  | 68 nM
10 | C=CC(=O)N1CC2(CCN(c3nc4c(c(-c5c(C)ccc6[nH]ncc56)c3F)C[C@H]3C[C@@H]4C3(C)C)C2)C1 (single isomer, unassigned) [Example 14-73] | 11 nM |  | > 5 µM |  |  | 10 nM
11 | C=CC(=O)N1CC2(CCN(c3nc4c(c(-c5c(C)ccc6cn[nH]c56)c3C#N)COC(C)(C)C4)C2)C1 (single isomer, unassigned) [Example 14-81, (P)-7,7-dimethyl-4-(6-methyl-1H-indazol-7-yl)-2-(2-(2-propenoyl)-2,6-diazaspiro[3.4]octan-6-yl)-7,8-dihydro-5H-pyrano[4,3-b]pyridine-3-carbonitrile] | 92 nM |  | > 5 µM |  |  | 45 nM

More lines, now with the values ahead:

Row | IC50 ([1]; Homo sapiens, MIA PaCa-2, 72 h) | IC50 (KRAS G12C; [3]) | IC50 ([2]; Homo sapiens, A549, 72 h) | IC50 ([1]; 72 h) | IC50 ([2]; 72 h) | IC50 (KRAS G12C) | Structure (SMILES)
12 | 401 nM | 78 nM | > 5 µM |  |  |  | C=CC(=O)N1CC2(CCN(c3nc4c(c(-c5c(C)ccc6cnn(C)c56)c3C#N)CC[C@@H]3C[C@H]43)C2)C1 (single isomer, unassigned) [Example 13-136, (6a,7a)-4-(1,6-dimethyl-1H-indazol-7-yl)-2-(2-(2-propenoyl)-2,6-diazaspiro[3.4]octan-6-yl)-6,6a,7,7a-tetrahydro-5H-cyclopropa[h]quinoline-3-carbonitrile]
13 | 468 nM | 72 nM | > 5 µM |  |  |  | C=CC(=O)N1CC2(CCN(c3nc4c(c(-c5c(C)ccc6cnn(C)c56)c3C#N)CC[C@H]3C[C@@H]43)C2)C1 (single isomer, unassigned) [Example 13-137, (6a,7a)-4-(1,6-dimethyl-1H-indazol-7-yl)-2-(2-(2-propenoyl)-2,6-diazaspiro[3.4]octan-6-yl)-6,6a,7,7a-tetrahydro-5H-cyclopropa[h]quinoline-3-carbonitrile]
14 |  | 31 nM | > 5 µM | 208 nM |  |  | C=CC(=O)N1CC2(CCN(c3nc4c(c(-c5c(C)ccc6cnn(C)c56)c3C#N)CCC(C)(C)C4)C2)C1 (single isomer, unassigned) [Example 13-145, 4-(1,6-dimethyl-1H-indazol-7-yl)-7,7-dimethyl-2-(2-(2-propenoyl)-2,6-diazaspiro[3.4]octan-6-yl)-5,6,7,8-tetrahydro-3-quinolinecarbonitrile]
15 |  | 111 nM | > 5 µM | 93 nM |  |  | C=CC(=O)N1CC2(CCN(c3nc4c(c(-c5c(N)c(Cl)cc(Cl)c5F)c3C#N)COC(C)(C)C4)C2)C1 (single isomer, unassigned) [Example 13-155, 4-(2-amino-3,5-dichloro-6-fluorophenyl)-7,7-dimethyl-2-(2-(2-propenoyl)-2,6-diazaspiro[3.4]octan-6-yl)-7,8-dihydro-5H-pyrano[4,3-b]pyridine-3-carbonitrile]
16 | 9 nM | 17 nM | > 5 µM |  |  |  | C=CC(=O)N1CC2(CCN(c3nc4c(c(-c5c(C)ccc6[nH]ncc56)c3C#N)[C@@H]3CC[C@H]4C3)C2)C1 (single isomer, unassigned) [Example 14-4]
17 | 6 nM | 14 nM | 5.57 µM |  |  |  | C=CC(=O)N1CC2(CCN(c3nc4c(c(-c5c(C)ccc6[nH]ncc56)c3C#N)[C@@H]3CC[C@H]4C3)C2)C1 (single isomer, unassigned) [Example 14-7]
18 | 149 nM | 38 nM | > 5 µM |  |  |  | C=CC(=O)N1CC2(CCN(c3nc4c(c(-c5cc(O)ccc5C)c3C#N)[C@@H]3CC[C@H]4C3)C2)C1 (single isomer, unassigned) [Example 14-11]
19 | 68 nM | 49 nM | > 5 µM |  |  |  | C=CC(=O)N1CC2(CCN(c3nc4c(c(-c5c(C)ccc6cnn(C)c56)c3C#N)[C@@H]3CC[C@H]4C3)C2)C1 (single isomer, unassigned) [Example 14-15]
20 | 51 nM | 22 nM | > 5 µM |  |  |  | C=CC(=O)N1CC2(CCN(c3nc4c(c(-c5c(C)ccc6cnn(C)c56)c3C#N)[C@@H]3CC[C@H]4C3)C2)C1 (single isomer, unassigned) [Example 14-17]
21 | 143 nM |  | > 5 µM |  |  | 58 nM | C=CC(=O)N1CC2(CCN(c3nc4c(c(-c5cccc6cn[nH]c56)c3C#N)C[C@H]3C[C@@H]4C3(C)C)C2)C1 (single isomer, unassigned) [Example 14-29]
22 | 105 nM |  | > 5 µM |  |  | 106 nM | C=CC(=O)N1CC2(CCN(c3nc4c(c(-c5cc(O)ccc5C)c3C)COC(C)(C)C4)C2)C1 (single isomer, unassigned) [Example 14-31, (M)-1-(6-(4-(5-hydroxy-2-methylphenyl)-3,7,7-trimethyl-7,8-dihydro-5H-pyrano[4,3-b]pyridin-2-yl)-2,6-diazaspiro[3.4]octan-2-yl)-2-propen-1-one]
23 | 32 nM |  | > 5 µM |  |  | 44 nM | C=CC(=O)N1CC2(CCN(c3nc4c(c(-c5c(C)ccc6[nH]ncc56)c3C)COC(C)(C)C4)C2)C1 (single isomer, unassigned) [Example 14-33, (P)-1-(6-(3,7,7-trimethyl-4-(5-methyl-1H-indazol-4-yl)-7,8-dihydro-5H-pyrano[4,3-b]pyridin-2-yl)-2,6-diazaspiro[3.4]octan-2-yl)-2-propen-1-one]

From patent US20240059703A1 (AMGEN INC., priority 2021, published 2024)
